One data set addresses T1, COX-1 (Homo sapiens, UniProt P23219).
T1 construct: host or cells: U-937 human lymphoma cells
Kind of data set: Assay for the COX-1 inhibitory activity using U-937 (PGE2 inhibition). Format: cell-based. Particulars: test compound 1 μM; U-937 human lymphoma cells; arachidonic acid substrate; PGE2 quantified; read-out: Cyclooxygenase (COX) Inhibition (%) COX-1 (1 μM). Here is the method:
The collected cells were diluted with HBSS (×1, Hank's balanced salt solution) to a concentration of 1×10^6 cells/ml. 1 ml of the dilute cell solution was placed into each well of 12-well plates. 5 μl of 1 μM solution of a test compound in DMSO and 5 μl of DMSO as a control were added to the wells. The wells were incubated in CO2 incubator at 37° C. for 15 minutes. Separately, 10 mM stock solution of arachidonic acid in ethanol was diluted ten times in ethanol to prepare 1 mM solution of arachidonic acid. Arachidonic acid acts as a substrate. 10 μl of the 1 mM solution of arachidonic acid was added to each well and incubated at CO2 incubator at 37° C. for 30 minutes. The cell solution of each well was placed in a centrifuge test tube and centrifuged at 10,000 rpm at 4° C. for 5 minutes. The concentration of PGE2 in the collected cells and the supernatant was quantified by means of a monoclonal kit (Cayman Chemicals). The percentages of PGE2 inhibition in a group of the test compound-treated cells in relation to a group of the DMSO-treated cells were calculated. Based on the calculated values, the COX-1 inhibitory activities were evaluated.
(§1) The percentages of the COX inhibition were calculated according to the following equation: % Inhibition=(concentration of PGE2 in test compound-untreated sample−concentration of PGE2 in test compound-treated sample)/(concentration of PGE2 in test compound-untreated sample)×100

A further data set concerns the target T2, COX-2 (Mus musculus, UniProt Q05769).
T2 construct: host or cells: RAW 264.7 cells, pre-treated with aspirin, then induced with interferon and LPS
T2 sequence (Q05769 18-604): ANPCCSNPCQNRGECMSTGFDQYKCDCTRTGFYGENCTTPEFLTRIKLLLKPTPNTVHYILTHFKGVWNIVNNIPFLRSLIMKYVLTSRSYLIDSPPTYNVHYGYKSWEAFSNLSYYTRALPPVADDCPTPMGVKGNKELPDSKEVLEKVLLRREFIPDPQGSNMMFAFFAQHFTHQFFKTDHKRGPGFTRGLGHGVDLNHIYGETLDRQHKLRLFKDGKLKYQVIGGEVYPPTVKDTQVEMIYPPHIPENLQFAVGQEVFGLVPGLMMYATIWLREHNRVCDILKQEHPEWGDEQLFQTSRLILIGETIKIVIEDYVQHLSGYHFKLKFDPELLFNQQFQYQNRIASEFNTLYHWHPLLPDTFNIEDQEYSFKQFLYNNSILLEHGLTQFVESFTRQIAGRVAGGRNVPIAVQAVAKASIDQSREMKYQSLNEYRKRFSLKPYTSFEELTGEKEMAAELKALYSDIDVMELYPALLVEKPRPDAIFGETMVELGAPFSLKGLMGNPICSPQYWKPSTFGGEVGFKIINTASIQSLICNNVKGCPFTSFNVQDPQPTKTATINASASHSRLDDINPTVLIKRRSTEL
Kind of data set: Assay for the COX-2 inhibitory activity using Raw 264.7 cell line (PGE2 inhibition). Format: cell-based. Particulars: RAW264.7; test compound 30 nM; RAW 264.7 cells; aspirin pre-treated, interferon + LPS 18 hours; PGE2 by EIA; read-out: Cyclooxygenase (COX) Inhibition (%) COX-2 (30 nM). Here is the method:
Each well was treated with 250 μM of aspirin and incubated at 37° C. for 2 hours. After the culture media were replaced with new culture media, the new culture media were treated with a test compound (30 nM) and incubated for 30 minutes. Then, each well was treated with interferon ? (100 units/ml) and lipopolysaccharide (LPS, 100 ng/ml) and incubated for 18 hours. The culture media were transferred to other test tubes. The concentration of PGE2 was quantified by means of the EIA kit (Cayman Chemicals).
as §1

The structures appear in SMILES notation.

T1 sequence (P23219 24-599): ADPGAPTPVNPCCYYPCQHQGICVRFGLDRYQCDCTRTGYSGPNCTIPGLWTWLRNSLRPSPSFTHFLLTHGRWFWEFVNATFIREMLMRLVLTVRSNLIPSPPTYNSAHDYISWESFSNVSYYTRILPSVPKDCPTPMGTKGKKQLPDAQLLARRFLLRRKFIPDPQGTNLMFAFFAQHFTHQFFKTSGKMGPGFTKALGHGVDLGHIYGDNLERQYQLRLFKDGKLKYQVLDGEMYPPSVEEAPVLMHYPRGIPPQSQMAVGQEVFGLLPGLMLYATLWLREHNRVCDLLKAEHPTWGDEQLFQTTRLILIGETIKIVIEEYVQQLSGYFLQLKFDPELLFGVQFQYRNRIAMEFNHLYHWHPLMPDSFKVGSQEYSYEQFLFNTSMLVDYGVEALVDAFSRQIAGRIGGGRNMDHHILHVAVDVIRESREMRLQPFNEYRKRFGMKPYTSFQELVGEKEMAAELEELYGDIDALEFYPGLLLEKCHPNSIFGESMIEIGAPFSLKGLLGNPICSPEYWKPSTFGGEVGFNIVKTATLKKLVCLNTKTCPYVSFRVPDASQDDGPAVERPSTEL

A word on the inhibition: it is the change of the read-out against control, counted positive when it falls. As usually defined, the melting point is the temperature, or range, at which the solid turns liquid. In turn, `CS(=O)(=O)c1ccc(-c2ssc(=S)c2-c2ccc(F)cc2F)cc1` [Example 63, 4-(2,4-difluorophenyl)-5-(4-methanesulfonylphenyl)-[1,2]dithiol-3-thione] came in with a melting point of 148 to 149 °C. In addition, the inhibition at 1 µM at COX-1 amounted to 20.3%. Besides, the inhibition at 0.03 µM at COX-2 came to 21.3%.

In turn, `CS(=O)(=O)c1ccc(-c2ssc(=S)c2-c2ccccc2)cc1` [Example 42, 5-(4-methanesulfonylphenyl)-4-phenyl-[1,2]dithiol-3-thione] displayed a melting point of 200 to 202 °C. For the same compound, on COX-1, the inhibition at 1 µM stood at 24.5%. For the same compound, the inhibition at 0.03 µM at COX-2 worked out at 20.1%.

Regarding `CS(=O)(=O)c1ccc(-c2ssc(=S)c2-c2ccccc2[N+](=O)[O-])cc1` [Example 54, 5-(4-methanesulfonylphenyl)-4-(2-nitrophenyl)-[1,2]dithiol-3-thione], the melting point lay within 170 to 171 °C. Moreover, on COX-1, the inhibition at 1 µM came out at 22.4%. Moreover, the inhibition at 0.03 µM at COX-2 is 26.3%.

For `COc1ccc(-c2c(-c3ccc(S(C)(=O)=O)cc3Cl)ssc2=S)cc1` [Example 73, 5-(2-chloro-4-methanesulfonylphenyl)-4-(4-methoxyphenyl)-[1,2]dithiol-3-thione], the melting point lay within 192 to 193 °C. Besides, the inhibition at 1 µM on COX-1 was 25.6%. For the same compound, the inhibition at 0.03 µM on COX-2 was found to be 20.1%.

In turn, `COc1ccc(-c2c(-c3ccc(F)c(F)c3)ssc2=S)cc1` [Example 75, 5-(3,4-difluorophenyl)-4-(4-methoxyphenyl)-[1,2]dithiol-3-thione] returned a melting point of 143 to 145 °C. For the same compound, the inhibition at 1 µM at COX-1 was found to be 26.6%. For the same compound, the inhibition at 0.03 µM at COX-2 is 19.6%.

As for `CC(=O)Oc1ccc(-c2c(-c3ccc(S(C)(=O)=O)c(F)c3)ssc2=S)cc1` [Example 79, Acetic acid 4-[5-(3-fluoro-4-methanesulfonylphenyl)-3-thioxo-3H-[1,2]dithiol-4-yl]-phenyl ester], the melting point lay within 200 to 201 °C. Further, the inhibition at 1 µM at COX-1 is 19.5%. Besides, the inhibition at 0.03 µM on COX-2 came to 30.2%.

Compound `CS(=O)(=O)c1ccc(-c2[nH][nH]c(=S)c2-c2ccc(Cl)c(Cl)c2)cc1` [Example 81, 4-(3,4-dichlorophenyl)-5-(4-methanesulfonylphenyl)-1,2-dihydropyrazole-3-thione] came in with a melting point of 192 to 193 °C. Further, the inhibition at 1 µM on COX-1 came to 24.9%. Further, the inhibition at 0.03 µM on COX-2 stood at 24.6%.

Regarding `CS(=O)(=O)c1ccc(-c2ssc(=S)c2-c2ccccc2C(F)(F)F)cc1` [Example 44, 5-(4-methanesulfonylphenyl)-4-(2-trifluoromethylphenyl)-[1,2]dithiol-3-thione], the melting point lay in the range of 240 to 242 °C. Further, the inhibition at 1 µM at COX-1 stood at 25.5%. Further, the inhibition at 0.03 µM at COX-2 is 20.1%.

Consider `CCOc1ccc(-c2c(-c3ccc(S(C)(=O)=O)cc3)ssc2=S)cc1` [Example 39, 4-(4-ethoxyphenyl)-5-(4-methanesulfonylphenyl)-[1,2]dithiol-3-thione], for which the melting point is 210 to 212 °C. For the same compound, the inhibition at 1 µM at COX-1 is 15%. Besides, the inhibition at 0.03 µM on COX-2 came out at 36.6%.

Take `CC(=O)Oc1ccc(-c2c(-c3ccc(S(C)(=O)=O)cc3)ssc2=S)cc1` [Example 69, Acetic acid 4-[5-(4-methanesulfonylphenyl)-3-thioxo-3H-[1,2]dithiol-4-yl]phenyl ester]: the melting point lay in the range of 241 to 243 °C. Moreover, the inhibition at 1 µM at COX-1 was 24.8%. The inhibition at 0.03 µM at COX-2 was found to be 21.3%.

For the compound `CS(=O)(=O)c1ccc(-c2ssc(=S)c2-c2ccc(F)c(F)c2)cc1` [Example 64, 4-(3,4-difluorophenyl)-5-(4-methanesulfonylphenyl)-[1,2]dithiol-3-thione], the melting point lay within 193 to 194 °C. Further, the inhibition at 1 µM at COX-1 came to 21.6%. Further, at COX-2, the inhibition at 0.03 µM was found to be 19.8%.

Regarding `Cc1ccc(-c2c(-c3ccc(F)c(F)c3)ssc2=S)cc1` [Example 74, 5-(3,4-difluorophenyl)-4-p-toryl-[1,2]dithiol-3-thione], the melting point lay within 140 to 142 °C. In addition, on COX-1, the inhibition at 1 µM turned out to be 26.5%. The inhibition at 0.03 µM on COX-2 stood at 19.2%.

`CS(=O)(=O)c1ccc(-c2ssc(=S)c2-c2ccc(Br)cc2)c(Cl)c1` [Example 72, 4-(4-bromophenyl)-5-(2-chloro-4-methanesulfonylphenyl)-[1,2]dithiol-3-thione] yielded a melting point of 194 to 195 °C. The inhibition at 1 µM at COX-1 was found to be 28.1%. Also, the inhibition at 0.03 µM on COX-2 was 19.3%.

`CCCOc1ccc(-c2c(-c3ccc(S(C)(=O)=O)cc3)ssc2=S)cc1` [Example 68, 5-(4-methanesulfonylphenyl)-4-(4-propoxyphenyl)-[1,2]dithiol-3-thione] had a melting point of 177 to 178 °C. Further, the inhibition at 1 µM on COX-1 came out at 25.5%. At COX-2, the inhibition at 0.03 µM is 22.7%.

For `CS(=O)(=O)c1ccc(-c2ssc(=S)c2-c2ccc(Br)cc2)cc1` [Example 40, 4-(4-bromophenyl)-5-(4-methanesulfonylphenyl)-[1,2]dithiol-3-thione], the melting point fell in the range of 238 to 240 °C. On COX-1, the inhibition at 1 µM stood at 18.3%. Also, the inhibition at 0.03 µM on COX-2 is 35.7%.

In the case of `CS(=O)(=O)c1ccc(-c2ssc(=S)c2-c2ccccc2Br)cc1` [Example 61, 4-(2-bromophenyl)-5-(4-methanesulfonylphenyl)-[1,2]dithiol-3-thione], the melting point is 179 to 180 °C. Also, the inhibition at 1 µM on COX-1 is 23.3%. The inhibition at 0.03 µM on COX-2 was found to be 20.1%.

`COc1cccc(-c2c(-c3ccc(S(C)(=O)=O)cc3)ssc2=S)c1` [Example 53, 5-(4-methanesulfonylphenyl)-4-(3-methoxyphenyl)-[1,2]dithiol-3-thione] showed a melting point of 212 to 213 °C. For the same compound, the inhibition at 1 µM at COX-1 was 26.7%. In addition, the inhibition at 0.03 µM on COX-2 amounted to 21.6%.

`COc1ccc(-c2c(-c3ccc(S(C)(=O)=O)cc3)ssc2=S)cc1OC` [Example 60, 4-(3,4-dimethoxyphenyl)-5-(4-methanesulfonylphenyl)-[1,2]dithiol-3-thione] had a melting point of 182 to 183 °C. Besides, on COX-1, the inhibition at 1 µM was determined as 26.5%. In addition, the inhibition at 0.03 µM at COX-2 turned out to be 19.3%.

With `CS(=O)(=O)c1ccc(-c2ssc(=S)c2-c2ccc(Cl)cc2)cc1` [Example 45, 4-(4-chlorophenyl)-5-(4-methanesulfonylphenyl)-[1,2]dithiol-3-thione], the melting point lay within 233 to 235 °C. Further, the inhibition at 1 µM at COX-1 was determined as 19.6%. In addition, the inhibition at 0.03 µM at COX-2 worked out at 22.1%.

The compound `CS(=O)(=O)c1ccc(-c2ssc(=S)c2-c2cccc(C(F)(F)F)c2)cc1` [Example 55, 5-(4-methanesulfonylphenyl)-4-(3-trifluoromethylphenyl)-[1,2]dithiol-3-thione] gave a melting point of 188 to 189 °C. Moreover, the inhibition at 1 µM on COX-1 came out at 27.6%. For the same compound, the inhibition at 0.03 µM on COX-2 is 20.2%.

The compound `Cc1cc(C)cc(-c2c(-c3ccc(S(C)(=O)=O)cc3)ssc2=S)c1` [Example 52, 4-(3,5-dimethylphenyl)-5-(4-methanesulfonylphenyl)-[1,2]dithiol-3-thione] yielded a melting point of 164 to 165 °C. In addition, the inhibition at 1 µM at COX-1 worked out at 26.6%. For the same compound, at COX-2, the inhibition at 0.03 µM is 19.1%.
